Data taken from ChEMBL document CHEMBL1201862, “PubChem BioAssay data set” (2004).
Calls of active or inactive are those of the source.

Tests used:
Beta-lactamase [1] = target: T1, Beta-lactamase (Salmonella choleraesuis (strain SC-B67), UniProt Q5J463); test: Epi-absorbance-based counterscreen for selective VIM-2 inhibitors: dose response biochemical high throughput screening assay to identify inhibitors of TEM-1 serine-beta-lactamase.
Beta-lactamase [2] = target: T2, Beta-lactamase (Pseudomonas aeruginosa, UniProt Q79MP6); test: IMP-1 metallo-beta-lactamase inhibitors, dose response, selectivity assay for VIM-2 inhibitor project, biochemical, epi-absorbance (AID 1920)
T2 sequence (Q79MP6 whole entry): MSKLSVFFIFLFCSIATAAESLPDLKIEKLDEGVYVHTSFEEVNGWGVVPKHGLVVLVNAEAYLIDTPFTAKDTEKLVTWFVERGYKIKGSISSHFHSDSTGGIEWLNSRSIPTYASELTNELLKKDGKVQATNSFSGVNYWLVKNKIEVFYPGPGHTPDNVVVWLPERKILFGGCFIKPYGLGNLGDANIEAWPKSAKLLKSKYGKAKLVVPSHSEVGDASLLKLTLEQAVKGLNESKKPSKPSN

Beta-lactamase [3] = target: T2, Beta-lactamase; test: […] counterscreen for selective VIM-2 inhibitors: dose response biochemical high throughput screening assay to identify inhibitors of IMP-1 metallo-beta-lactamase.
[4] = target: Photoreceptor-specific nuclear receptor (Homo sapiens, UniProt Q9Y5X4); format: functional, cell-based;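 also: CHO-S cells with Gal4-NCOR and VP16-NR2E3 two-hybrid luciferase reporter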
Chain of Photoreceptor-specific nuclear receptor (Q9Y5X4 whole entry, the tested form may be a part): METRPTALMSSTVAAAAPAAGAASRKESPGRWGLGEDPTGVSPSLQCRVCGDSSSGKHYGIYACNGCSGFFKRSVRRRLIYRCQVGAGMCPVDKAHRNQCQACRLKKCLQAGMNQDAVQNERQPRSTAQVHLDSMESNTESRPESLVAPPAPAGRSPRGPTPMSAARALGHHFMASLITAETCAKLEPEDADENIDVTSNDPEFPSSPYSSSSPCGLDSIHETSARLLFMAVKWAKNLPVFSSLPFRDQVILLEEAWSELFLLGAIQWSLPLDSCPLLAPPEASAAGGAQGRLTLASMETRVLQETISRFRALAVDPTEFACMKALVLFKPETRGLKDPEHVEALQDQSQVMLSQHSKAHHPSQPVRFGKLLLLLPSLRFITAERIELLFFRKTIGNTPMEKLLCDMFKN

[5] = CEM21 lymphoblast cell cytotoxicity, dose response, cytotoxicity control for viral fusion inhibitor project, CellTiter-Glo luminescence, cherry-picked (AID 652042); format: functional, cell-based;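 also: potency for signal decrease meaning cytotoxicity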
[6] = ZM109 Env clade C HIV-1 fusion inhibitors, dose response, HeLa effector, CEM target cells, luciferase, cherry-pick (AID 652058); format: functional, cell-based
[7] = off-target signal loss in HeLa-CEM21 co-culture – HeLa F-luc CTL cells, cherry-picked, counter-screen for HIV-1 Env fusion inhibitor project, dose response (AID 652040); format: functional, cell-based;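 also: potency for signal decrease marking cytotoxic or nonspecific inhibition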
Paired box protein Pax-8 = Paired box protein Pax-8 (Homo sapiens, UniProt Q06710); test: inhibitors of PAX8-driven TPO luciferase reporter, dose response, RMG-I cells, cherry-pick (AID 687027); format: functional, cell-based;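 also: luciferase reporter driven by Pax8 target thyroperoxidase promoter measured by SteadyGlo luminescence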
[8] = inhibitors of CMV-promoter luciferase reporter, dose response, counter-screen for Pax8 inhibitor project, cell-based, HEK293, luminescence, dry powder (AID 743020); format: functional
[9] = inhibitors of clade B AD8 Env fusion, dose response, cell-based, cherry-pick (AID 652062); format: functional;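 also: luciferase signal from cell-cell fusion driven by HIV-1 clade B AD8 Env; potency is for inhibitors of fusion seen as a drop in luminescence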
[10] = inhibitors of HIV Env-driven cell fusion, dose response, cherry-pick (AID 652057); format: functional, cell-based
[11] = Counterscreen for AddAB inhibitors: absorbance-based bacterial cell-based high throughput dose response assay for inhibitors of bacterial viability. [Related pubchem assays (depositor defined):AID435030, AID449728, AID449731, AID488942, AID488955, AID488956]; format: functional
Albumin = Albumin (Bos taurus, UniProt P02769); test: Counterscreen for inhibitors of T-cell receptor (TCR)-CD3 interaction: Fluorescence-based biochemical high throughput dose response assay to identify inhibitors of T-cell receptor (TCR)-CD3 interaction using a TAMRA-labeled BSA probe.; format: functional
Exodeoxyribonuclease V = target: T3, Exodeoxyribonuclease V (Escherichia coli (strain K12), UniProt P04993+P07648+P08394); test: E. coli RecBCD inhibitors, dose response, counter-screen for AddAB inhibitor project, absorbance, V66 E. coli, mutant T4 phage (AID 492957); format: functional, cell-based, Escherichia coli str. K-12 substr. MG1655
T3 sequence (P04993 whole entry): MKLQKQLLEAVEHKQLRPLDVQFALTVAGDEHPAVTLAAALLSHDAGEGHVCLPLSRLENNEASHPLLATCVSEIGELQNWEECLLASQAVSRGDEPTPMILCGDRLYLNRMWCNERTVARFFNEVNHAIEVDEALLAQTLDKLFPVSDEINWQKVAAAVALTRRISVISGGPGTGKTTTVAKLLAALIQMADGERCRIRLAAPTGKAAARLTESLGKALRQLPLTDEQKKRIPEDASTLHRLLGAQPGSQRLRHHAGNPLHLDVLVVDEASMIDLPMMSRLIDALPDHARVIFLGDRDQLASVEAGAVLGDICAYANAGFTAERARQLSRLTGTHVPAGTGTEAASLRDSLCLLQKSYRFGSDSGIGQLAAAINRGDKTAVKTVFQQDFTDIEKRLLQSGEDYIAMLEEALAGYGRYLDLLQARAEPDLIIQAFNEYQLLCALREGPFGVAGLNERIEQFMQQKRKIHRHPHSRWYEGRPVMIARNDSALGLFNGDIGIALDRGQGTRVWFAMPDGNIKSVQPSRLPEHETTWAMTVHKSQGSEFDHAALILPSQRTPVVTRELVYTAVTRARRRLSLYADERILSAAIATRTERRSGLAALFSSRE
T3 sequence (P07648 whole entry): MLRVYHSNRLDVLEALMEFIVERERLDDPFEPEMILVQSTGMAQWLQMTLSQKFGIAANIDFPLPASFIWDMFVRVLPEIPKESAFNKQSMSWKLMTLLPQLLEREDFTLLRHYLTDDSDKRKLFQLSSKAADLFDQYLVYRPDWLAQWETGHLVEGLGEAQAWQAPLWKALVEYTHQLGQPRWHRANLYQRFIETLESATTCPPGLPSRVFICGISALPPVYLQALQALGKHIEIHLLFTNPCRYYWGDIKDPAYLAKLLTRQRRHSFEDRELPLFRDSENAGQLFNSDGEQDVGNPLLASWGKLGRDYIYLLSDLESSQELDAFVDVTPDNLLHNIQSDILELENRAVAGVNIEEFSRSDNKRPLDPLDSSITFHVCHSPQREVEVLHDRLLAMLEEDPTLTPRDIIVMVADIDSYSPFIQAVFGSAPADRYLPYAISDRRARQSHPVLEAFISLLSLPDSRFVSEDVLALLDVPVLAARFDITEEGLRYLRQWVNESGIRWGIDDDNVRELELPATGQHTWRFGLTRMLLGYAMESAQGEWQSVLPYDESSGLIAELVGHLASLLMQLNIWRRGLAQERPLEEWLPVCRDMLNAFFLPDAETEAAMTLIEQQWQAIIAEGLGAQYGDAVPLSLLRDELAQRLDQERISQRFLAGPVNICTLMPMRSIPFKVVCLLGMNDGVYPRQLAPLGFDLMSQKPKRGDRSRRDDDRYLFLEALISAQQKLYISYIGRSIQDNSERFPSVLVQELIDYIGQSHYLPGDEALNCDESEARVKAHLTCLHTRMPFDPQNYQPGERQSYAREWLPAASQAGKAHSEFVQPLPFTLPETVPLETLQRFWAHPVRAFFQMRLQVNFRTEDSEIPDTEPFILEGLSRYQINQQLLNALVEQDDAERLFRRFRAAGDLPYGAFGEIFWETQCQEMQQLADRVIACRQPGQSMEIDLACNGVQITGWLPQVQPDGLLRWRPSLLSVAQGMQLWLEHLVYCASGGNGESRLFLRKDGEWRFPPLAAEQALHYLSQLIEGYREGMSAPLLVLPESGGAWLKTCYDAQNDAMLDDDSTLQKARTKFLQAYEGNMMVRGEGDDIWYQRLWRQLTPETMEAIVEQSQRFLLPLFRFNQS
T3 sequence (P08394 whole entry): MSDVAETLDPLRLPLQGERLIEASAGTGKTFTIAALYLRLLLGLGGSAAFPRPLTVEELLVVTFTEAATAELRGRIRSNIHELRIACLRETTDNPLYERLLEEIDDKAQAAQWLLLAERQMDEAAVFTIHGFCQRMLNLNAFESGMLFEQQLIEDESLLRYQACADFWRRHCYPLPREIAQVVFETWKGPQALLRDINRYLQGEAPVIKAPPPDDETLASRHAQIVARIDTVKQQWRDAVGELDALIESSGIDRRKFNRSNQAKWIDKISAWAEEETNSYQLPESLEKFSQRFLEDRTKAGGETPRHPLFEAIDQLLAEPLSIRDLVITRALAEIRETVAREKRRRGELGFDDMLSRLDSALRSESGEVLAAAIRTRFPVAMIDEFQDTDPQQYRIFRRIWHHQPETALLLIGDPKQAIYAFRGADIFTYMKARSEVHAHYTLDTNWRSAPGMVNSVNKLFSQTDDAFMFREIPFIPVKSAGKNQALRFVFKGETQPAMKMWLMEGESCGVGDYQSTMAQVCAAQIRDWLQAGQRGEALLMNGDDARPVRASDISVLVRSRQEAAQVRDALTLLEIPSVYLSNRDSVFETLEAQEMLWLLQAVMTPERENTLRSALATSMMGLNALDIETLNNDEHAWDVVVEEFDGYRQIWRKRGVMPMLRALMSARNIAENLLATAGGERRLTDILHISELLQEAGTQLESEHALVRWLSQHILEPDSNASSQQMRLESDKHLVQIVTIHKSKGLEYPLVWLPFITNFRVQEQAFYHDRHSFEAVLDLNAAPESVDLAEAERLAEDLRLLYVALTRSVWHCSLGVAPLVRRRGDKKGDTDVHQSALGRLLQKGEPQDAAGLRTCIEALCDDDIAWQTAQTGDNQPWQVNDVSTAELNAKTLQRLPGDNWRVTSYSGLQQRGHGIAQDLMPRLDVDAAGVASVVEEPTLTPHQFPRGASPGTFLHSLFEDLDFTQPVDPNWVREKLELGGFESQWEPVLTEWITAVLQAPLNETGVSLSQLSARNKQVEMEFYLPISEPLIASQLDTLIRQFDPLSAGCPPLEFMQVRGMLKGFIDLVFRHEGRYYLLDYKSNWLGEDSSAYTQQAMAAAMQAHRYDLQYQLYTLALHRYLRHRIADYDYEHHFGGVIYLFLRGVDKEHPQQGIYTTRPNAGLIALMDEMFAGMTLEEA

Beta-lactamase [12] = target: T2, Beta-lactamase
Beta-lactamase [13] = target: T1, Beta-lactamase
[14] = intracellular Trypanosoma cruzi inhibitors in host cells – cell-based, plate reader, cherry-pick samples, set 3, dose response (AID 651818); format: functional;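 also: compounds incubated with infected cells for about four days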
HeLa = test: HeLa cell cytotoxicity, dose response, cytotoxicity control, ATP luminescence, cherry-pick samples (AID 687004); format: functional, cell-based; settings: Homo sapiens
HEK293 = test: HEK293T cell cytotoxicity, dose response, cytotoxicity control, ATP luminescence, cherry-pick samples (AID 687005); format: functional, cell-based; settings: Homo sapiens;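 also: cells exposed to compound for 48 hours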
[15] = HEK293 Cytotoxicity Assay Measured in Cell-Based System Using Plate Reader - 7071-01_Inhibitor_Dose_CherryPick_Activity_Set2.; format: functional
[16] = cytotoxicity in ldlA[mSR-BI] CHO cells, dose response, cytotoxicity control for SR-BI HDL uptake inhibitor project, cell-based, CellTiter-Glo, 24 h, powder samples, set 7 (AID 624026); format: functional
[17] = target: T4, Scavenger receptor class B member 1 (Mus musculus, UniProt Q61009); test: inhibitors of SR-BI-mediated HDL uptake, dose response, cell-based, ldlA[mSR-BI] CHO, DiI fluorescence, dry powder, set 10 (AID 624029); format: functional
T4 sequence (Q61009 whole entry): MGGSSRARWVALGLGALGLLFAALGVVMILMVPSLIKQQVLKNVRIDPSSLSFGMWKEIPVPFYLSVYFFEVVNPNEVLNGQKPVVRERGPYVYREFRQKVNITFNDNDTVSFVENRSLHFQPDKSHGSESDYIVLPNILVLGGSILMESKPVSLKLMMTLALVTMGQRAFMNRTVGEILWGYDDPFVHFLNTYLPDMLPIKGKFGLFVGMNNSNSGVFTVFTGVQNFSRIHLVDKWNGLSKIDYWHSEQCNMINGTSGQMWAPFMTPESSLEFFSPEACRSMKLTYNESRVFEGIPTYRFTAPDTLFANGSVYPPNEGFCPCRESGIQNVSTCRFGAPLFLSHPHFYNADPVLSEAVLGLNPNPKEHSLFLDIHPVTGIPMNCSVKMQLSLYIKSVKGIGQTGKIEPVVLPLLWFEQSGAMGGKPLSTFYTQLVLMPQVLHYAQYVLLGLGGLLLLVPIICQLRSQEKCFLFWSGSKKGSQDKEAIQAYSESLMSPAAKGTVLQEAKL

[18] = target: T4, Scavenger receptor class B member 1; test: inhibitors of SR-BI dependent HDL uptake, dose response, ldlA[mSR-BI] CHO cells, fluorescence plate reader, dry powder, set 9 (AID 623880); format: functional, cell-based
[19] = Luminescence Cell-Based Dose Response HTS to Identify Inhibitors of 5'UTR Stem-Loop Driven Prion Protein mRNA Translation in H4 Neuroglioblastoma Cells. [Related pubchem assays: 1827 (Project Summary), 1813 (Primary HTS)]; format: functional
[20] = inhibitors of firefly luciferase expression or activity, dose response, H4 neuroglioma cells, luminescence (AID 1990); format: functional, cell-based
[21] = inhibitors of SNCA 5'UTR-driven reporter translation, confirmation, H4 neuroglioma cells, luminescence (AID 1988); format: functional, cell-based
[22] = HEK293T cell cytotoxicity, dose response, cytotoxicity control for HIV Vif inhibitor project, cherry-picks (AID 652208); format: functional, cell-based
[23] = target: T5, Voltage-gated N-type calcium channel alpha-1B subunit/Amyloid beta A4 precursor protein-binding family A member 1 (Homo sapiens, UniProt Q00975+Q02410); format: protein assay
T5 sequence (Q00975 whole entry): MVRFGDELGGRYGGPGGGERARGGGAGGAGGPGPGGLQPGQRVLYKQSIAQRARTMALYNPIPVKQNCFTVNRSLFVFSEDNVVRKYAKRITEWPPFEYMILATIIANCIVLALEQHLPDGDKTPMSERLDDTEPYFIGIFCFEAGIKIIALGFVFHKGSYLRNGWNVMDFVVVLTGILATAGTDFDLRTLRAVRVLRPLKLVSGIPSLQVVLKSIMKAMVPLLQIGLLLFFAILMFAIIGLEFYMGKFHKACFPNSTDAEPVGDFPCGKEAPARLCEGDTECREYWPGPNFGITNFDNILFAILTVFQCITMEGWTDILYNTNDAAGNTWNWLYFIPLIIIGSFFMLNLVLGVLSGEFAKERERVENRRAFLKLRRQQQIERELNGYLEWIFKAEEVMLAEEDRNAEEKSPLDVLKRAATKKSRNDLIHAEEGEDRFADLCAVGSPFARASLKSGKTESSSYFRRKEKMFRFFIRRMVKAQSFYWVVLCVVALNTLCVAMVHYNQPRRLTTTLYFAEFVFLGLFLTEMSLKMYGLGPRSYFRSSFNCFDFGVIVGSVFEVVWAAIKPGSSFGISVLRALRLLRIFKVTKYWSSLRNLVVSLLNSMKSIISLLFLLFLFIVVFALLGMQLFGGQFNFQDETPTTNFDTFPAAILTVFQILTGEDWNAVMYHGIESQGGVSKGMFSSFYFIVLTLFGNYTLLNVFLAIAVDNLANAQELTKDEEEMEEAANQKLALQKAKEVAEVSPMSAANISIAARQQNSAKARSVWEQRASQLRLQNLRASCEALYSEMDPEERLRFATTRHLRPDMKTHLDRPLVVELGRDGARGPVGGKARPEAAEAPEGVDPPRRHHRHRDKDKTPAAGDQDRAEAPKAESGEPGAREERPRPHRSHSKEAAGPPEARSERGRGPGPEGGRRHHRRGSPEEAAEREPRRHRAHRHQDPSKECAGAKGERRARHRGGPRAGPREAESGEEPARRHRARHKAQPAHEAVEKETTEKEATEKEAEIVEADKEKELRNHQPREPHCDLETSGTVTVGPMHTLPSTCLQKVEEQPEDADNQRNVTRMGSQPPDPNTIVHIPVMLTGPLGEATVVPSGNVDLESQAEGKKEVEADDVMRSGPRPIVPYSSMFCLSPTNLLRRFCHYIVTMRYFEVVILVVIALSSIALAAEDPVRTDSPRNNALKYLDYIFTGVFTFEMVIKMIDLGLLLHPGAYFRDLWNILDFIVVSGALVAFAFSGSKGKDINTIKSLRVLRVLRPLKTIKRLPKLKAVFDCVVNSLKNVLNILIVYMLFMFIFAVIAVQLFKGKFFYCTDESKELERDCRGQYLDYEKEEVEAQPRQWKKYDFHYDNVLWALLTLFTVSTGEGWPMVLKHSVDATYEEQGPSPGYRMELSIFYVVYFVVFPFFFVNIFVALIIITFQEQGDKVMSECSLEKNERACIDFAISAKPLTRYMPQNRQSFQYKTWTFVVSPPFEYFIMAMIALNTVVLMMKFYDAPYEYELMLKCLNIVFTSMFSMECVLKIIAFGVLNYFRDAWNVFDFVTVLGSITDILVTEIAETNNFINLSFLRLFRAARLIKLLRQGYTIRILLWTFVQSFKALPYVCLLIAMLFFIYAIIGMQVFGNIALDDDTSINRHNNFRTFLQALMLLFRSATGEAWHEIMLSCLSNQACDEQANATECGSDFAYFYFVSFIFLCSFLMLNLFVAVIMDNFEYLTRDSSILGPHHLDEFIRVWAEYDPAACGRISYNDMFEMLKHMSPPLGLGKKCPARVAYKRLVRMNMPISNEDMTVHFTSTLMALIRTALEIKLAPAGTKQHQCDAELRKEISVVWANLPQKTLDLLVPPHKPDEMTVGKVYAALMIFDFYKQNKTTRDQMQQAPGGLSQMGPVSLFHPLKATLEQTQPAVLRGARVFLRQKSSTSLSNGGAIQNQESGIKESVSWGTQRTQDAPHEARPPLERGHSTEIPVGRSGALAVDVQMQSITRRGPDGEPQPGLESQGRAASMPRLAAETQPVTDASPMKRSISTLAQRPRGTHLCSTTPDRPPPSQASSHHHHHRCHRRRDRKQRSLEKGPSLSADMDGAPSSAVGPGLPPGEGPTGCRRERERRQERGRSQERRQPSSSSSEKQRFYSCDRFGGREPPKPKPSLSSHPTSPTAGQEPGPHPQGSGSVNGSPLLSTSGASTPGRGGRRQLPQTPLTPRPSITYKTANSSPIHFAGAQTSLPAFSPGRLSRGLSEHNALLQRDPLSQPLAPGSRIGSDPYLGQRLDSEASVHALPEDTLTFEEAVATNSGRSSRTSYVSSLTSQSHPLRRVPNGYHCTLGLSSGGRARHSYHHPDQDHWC
T5 sequence (Q02410 whole entry): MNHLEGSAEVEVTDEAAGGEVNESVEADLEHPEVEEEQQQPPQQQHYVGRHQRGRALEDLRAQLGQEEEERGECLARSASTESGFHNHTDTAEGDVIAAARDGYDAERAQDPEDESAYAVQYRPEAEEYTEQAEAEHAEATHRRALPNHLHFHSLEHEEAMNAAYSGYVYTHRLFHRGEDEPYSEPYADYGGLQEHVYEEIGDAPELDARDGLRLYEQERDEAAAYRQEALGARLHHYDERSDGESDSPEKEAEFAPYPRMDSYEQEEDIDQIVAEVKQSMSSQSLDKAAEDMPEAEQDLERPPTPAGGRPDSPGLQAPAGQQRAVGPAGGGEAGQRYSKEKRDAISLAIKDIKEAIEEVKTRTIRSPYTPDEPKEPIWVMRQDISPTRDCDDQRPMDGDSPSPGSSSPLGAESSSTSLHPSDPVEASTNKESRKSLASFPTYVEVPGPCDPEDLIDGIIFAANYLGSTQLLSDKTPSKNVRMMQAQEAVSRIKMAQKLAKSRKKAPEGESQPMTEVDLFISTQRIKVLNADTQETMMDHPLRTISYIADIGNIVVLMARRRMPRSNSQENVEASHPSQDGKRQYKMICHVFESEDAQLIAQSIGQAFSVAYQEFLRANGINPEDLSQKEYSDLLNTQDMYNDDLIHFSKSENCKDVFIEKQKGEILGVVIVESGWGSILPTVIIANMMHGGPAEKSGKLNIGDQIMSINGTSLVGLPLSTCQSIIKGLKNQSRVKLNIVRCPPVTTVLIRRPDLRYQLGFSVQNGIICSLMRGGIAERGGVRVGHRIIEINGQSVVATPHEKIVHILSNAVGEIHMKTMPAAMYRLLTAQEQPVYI

[24] = target: T5, Voltage-gated N-type calcium channel alpha-1B subunit/Amyloid beta A4 precursor protein-binding family A member 1; format: protein assay; remark: listed apart in the source
[25] = target: Fructose-bisphosphate aldolase (Mycobacterium tuberculosis, UniProt P9WQA3); test: Fluorescence-based biochemical high throughput dose response assay for inhibitors of the fructose-bisphosphate aldolase (FBA) of M. tuberculosis.; format: functional
Chain of Fructose-bisphosphate aldolase (P9WQA3 whole entry): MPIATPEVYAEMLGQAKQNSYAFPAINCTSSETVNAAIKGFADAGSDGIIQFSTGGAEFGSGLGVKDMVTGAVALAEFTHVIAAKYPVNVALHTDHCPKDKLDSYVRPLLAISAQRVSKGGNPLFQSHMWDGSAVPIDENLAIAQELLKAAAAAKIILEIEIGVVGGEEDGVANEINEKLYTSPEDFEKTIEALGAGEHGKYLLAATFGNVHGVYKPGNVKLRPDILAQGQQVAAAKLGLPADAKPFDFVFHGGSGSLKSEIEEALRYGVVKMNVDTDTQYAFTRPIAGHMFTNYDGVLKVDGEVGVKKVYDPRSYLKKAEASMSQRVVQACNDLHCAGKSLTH

T1 sequence (Q5J463 whole entry): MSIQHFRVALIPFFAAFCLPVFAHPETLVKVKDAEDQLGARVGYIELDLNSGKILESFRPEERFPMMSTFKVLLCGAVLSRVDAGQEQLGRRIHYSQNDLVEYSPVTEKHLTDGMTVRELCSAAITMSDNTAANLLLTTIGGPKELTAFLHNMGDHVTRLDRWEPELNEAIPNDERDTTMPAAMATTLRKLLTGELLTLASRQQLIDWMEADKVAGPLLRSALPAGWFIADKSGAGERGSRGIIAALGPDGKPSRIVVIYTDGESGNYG

Structure (SMILES): CC(=O)c1ccc(-c2ccc(Cn3c(C)nc4cc(N)c(C)nc43)cc2)cc1
- IC50 (Beta-lactamase [1]): > 59.6 µM (inactive)
- IC50 (Beta-lactamase [2]): > 59.6 µM (inactive)
- IC50 (Beta-lactamase [3]): > 59.6 µM (inactive)

Structure (SMILES): CCC1(O)C(=O)OCc2c1cc1n(c2=O)Cc2cc3c(N)cccc3nc2-1 (stereo not given) [RS-9-Aminocamptothecin]
- IC50 [4]: 1.83 µM (active)
- AC50 [5]: 2.67 µM (active)
- AC50 [6]: 0.857 µM (active)
- AC50 [7]: < 0.26 µM (active)
- AC50 (Paired box protein Pax-8): < 0.26 µM (active)
- AC50 [8]: < 6.17 µM (active)
- AC50 [9]: 0.368 µM (active)
- AC50 [10]: < 0.26 µM (active)

Structure (SMILES): COc1ccc(/C=C2\SC(=O)N(CC(=O)NNC(=O)c3ccccc3O)C2=O)cc1OC
- IC50 [11]: > 119 µM (inactive)
- IC50 (Albumin): > 94.1 µM (inactive)
- IC50 (Exodeoxyribonuclease V): > 119 µM (inactive)

Structure (SMILES): CCN(CC)c1ccc2cc(C=O)c(=O)oc2c1
- IC50 (Beta-lactamase [12]): 57.9 µM (inactive)
- IC50 (Beta-lactamase [13]): 26.7 µM (inactive)

Structure (SMILES): C[C@H](CO)N1C[C@H](C)[C@H](CN(C)Cc2ccc(-c3ccccc3)cc2)Oc2c(NC(=O)c3ccncc3)cccc2C1=O
- AC50 [14]: 0.08 µM (active)
- AC50 (HeLa): > 52 µM (inactive)
- AC50 (HEK293): 14.2 µM (active)
- AC50 [15]: 14.2 µM (active)

Structure (SMILES): CC(C)(C)OC(=O)N1CCN(c2ccc(NC(=O)c3cc([N+](=O)[O-])ccc3Cl)cc2)CC1
- AC50 [16]: > 70 µM (inactive)
- AC50 [17]: 0.953 µM (active)
- AC50 [18]: 0.503 µM (active)

Structure (SMILES): CCOC(=O)c1cc(-c2ccccc2)sc1NC(=O)COC(=O)c1cccc(S(N)(=O)=O)c1
- EC50 [19]: > 120 µM (not active)
- EC50 [20]: 13.4 µM (active)
- EC50 [21]: 12.8 µM (active)
- AC50 [22]: 21.3 µM (active)
- IC50 [23]: > 50 µM (inactive)
- IC50 [24]: 4.51 µM (active)

Structure (SMILES): CCCNC(=O)c1c(N)n(-c2ccc(S(N)(=O)=O)cc2)c2nc3ccccc3nc12
- IC50 [25]: 0.673 µM (active)
